Tested on: ozone exposed C57BL6/J mice
Assay: Murine model of ozone induced neutrophilic airway inflammation
Type: in vivo, mouse
Protocol: Four groups of 4 or 5 female C57BL6/J mice (The Jackson Laboratory, Bar Harbor, ME) at 8–12 weeks of age were housed under pathogen-free conditions and maintained on an ovalbumin-free diet. Mice were dosed orally with JT002 at 2.5 or 25 mg/kg once daily for 4 days. On the last day, 1-h post-dosing of test compound, mice were exposed to O3 at 1.0 ppm for 3 h in stainless steel wire cages set inside 240-L laminar flow inhalation chambers. O3 was generated by directing compressed medical-grade oxygen through an electrical discharge O3 generator (Sander Ozonizer, Model 25, Erwin Sander Elektroapparatebau GmbH, Uetze-Eltze, Germany) located upstream of the exposure chamber. Exposure to HEPA-filtered air was done in a separate chamber with age- and treatment-matched control animals.
Determination of airway hyperresponsiveness (AHR) AHR was assessed on Day 30 (iTreg model) or 3 h after the O3 exposure (ozone model) as a change in airway resistance (cm H2O/mL/s) after challenge with aerosolized methacholine with using a whole body plethysmograph-based system (National Jewish Medical and Research Center, Denver, CO). Methacholine aerosol was administered by nebulization in increasing concentrations (12.5–100 mg/mL) and RL was continuously computed by fitting flow, volume, and pressure to an equation of motion (Labview, National Instruments, Dallas, TX). Bronchoalveolar Lavage Immediately after assessment of AHR, lungs were lavaged via the tracheal tube with 1 mL of Hanks’ balanced salt solution (Gibco, Grand Island, NY). Total cell numbers were counted. Differential cell counts for neutrophils and macrophages were performed in a blinded fashion by counting at least 200 cells on cytocentrifuged preparations (Model Cytospin 3, Shandon Ltd, Runcorn, UK) stained with Leukostat (Fisher Diagnostics, Fair Lawn, NJ). Cell-free BAL fluid was stored at − 80 °C until measurements of cytokine levels by ELISA (eBioscience, San Diego, CA) were performed. Blood Collection Immediately following AHR measurement, mice were euthanized by exsanguination and blood collected for serum. Samples were stored at − 80 °C for subsequent measurement of immunoglobulin levels by ELISA. Lung Histology After BAL collection, lungs were inflated through the trachea with 1 mL of 10% formalin, removed and fixed in 10% formalin by immersion. Blocks of the lung tissue were cut around the main bronchus and embedded in paraffin blocks. Tissue sections (5 μm) were affixed to glass slides, and the slides were deparaffinized and stained with H&E for qualitative analysis of inflammatory cell influx and epithelial desquamation.

[1] = 2.5 mg/kg orally once daily for 4 days
[2] = 25 mg/kg orally once daily for 4 days

## CO[C@@H]1COc2c(S(=O)(=O)NC(=O)Nc3c4c(cc5c3CCC5)CCC4)cnn2C1 [JT002]
[1]
  AHR: strong trend for reduction
  BAL neutrophilia: no effect
  prevention of airway epithelial desquamation: strong trend
[2]
  BAL fluid neutrophil numbers: significantly reduced
  appearance of epithelial cells in the airway lumen: visibly reduced
  number of epithelial cells in the BAL fluid: no effect
  ozone-induced AHR: prevented ozone-induced AHR

Source: publication PMC10439952, “JT002, a small molecule inhibitor of the NLRP3 inflammasome for the treatment of autoinflammatory disorders” (Scientific Reports, 2023)
